Experiment [1] has as its system Magnaporthe grisea (Pyricularia oryzae). Description: whole plant or invertebrate. The experiment is classed as in vivo. To be noted: foliar, read-out: disease control.
Experiment [2] concerns Mycosphaerella Graminicola (Septoria tritici). The experiment can be described thus: Mycosphaerella graminicola (Septoria tritici) / liquid culture (Septoria blotch). It counts as cell-based. The note with it: Zymoseptoria tritici, PDB potato dextrose broth, 24° C., 4 to 5 days after application, compared to untreated checks, read-out: disease control (inhibition of growth, photometric). On the procedure: Mycosphaerella Graminicola (Septoria tritici)/Liquid Culture (Septoria Blotch) Conidia of the fungus from cryogenic storage are directly mixed into nutrient broth (PDB potato dextrose broth). After placing a (DMSO) solution of test compound into a microtiter plate (96-well format), the nutrient broth containing the fungal spores is added. The test plates are incubated at 24° C. and the inhibition of growth is determined photometrically 4 to 5 days after application.

Experiment [3] relates to Phaeosphaeria nodorum (Septoria nodorum). Description: Phaeosphaeria nodorum (Septoria nodorum) / wheat / leaf disc preventative (glume blotch). The experiment is classed as in vivo. To be noted: Parastagonospora nodorum, foliar, 120 h, wheat leaf segments cv. Kanzler, inoculated 2 days after application, assessed 5-7 days after application, compared to untreated, read-out: disease control. The protocol:
Phaeosphaeria nodorum (Septoria nodorum)/Wheat/Leaf Disc Preventative (Glume Blotch) Wheat leaf segments cv. Kanzler are placed on agar in a multiwell plate (24-well format) and sprayed with the formulated test compound diluted in water. The leaf disks are inoculated with a spore suspension of the fungus 2 days after application. The inoculated test leaf disks are incubated at 20° C. and 75% rh under a light regime of 12 h light/12 h darkness in a climate cabinet and the activity of a compound is assessed as percent disease control compared to untreated when an appropriate level of disease damage appears in untreated check leaf disks (5-7 days after application).

For experiment [4], the system named is Monographella nivalis (Microdochium nivale). The experiment can be described thus: Monographella nivalis (Microdochium nivale) / liquid culture (foot rot cereals). The experiment is classed as cell-based. The note with it: PDB potato dextrose broth, 24° C., 4-5 days after application, compared to untreated checks, read-out: disease control (inhibition of growth, photometric). The protocol:
Monographella nivalis (Microdochium nivale)/Liquid Culture (Foot Rot Cereals) Conidia of the fungus from cryogenic storage are directly mixed into nutrient broth (PDB potato dextrose broth). After placing a (DMSO) solution of test compound into a microtiter plate (96-well format), the nutrient broth containing the fungal spores is added. The test plates are incubated at 24° C. and the inhibition of growth is determined photometrically 4-5 days after application.

The test system of experiment [5] is Mycosphaerella arachidis (Cercospora arachidicola). Description: Mycosphaerella arachidis (Cercospora arachidicola) / liquid culture (early leaf spot). It counts as cell-based. To be noted: PDB potato dextrose broth, 24° C., 4-5 days after application, compared to untreated checks, read-out: disease control (inhibition of growth, photometric). On the procedure:
Mycosphaerella arachidis (Cercospora arachidicola)/Liquid Culture (Early Leaf Spot) Conidia of the fungus from cryogenic storage are directly mixed into nutrient broth (PDB potato dextrose broth). After placing a (DMSO) solution of test compound into a microtiter plate (96-well format), the nutrient broth containing the fungal spores is added. The test plates are incubated at 24° C. and the inhibition of growth is determined photometrically 4-5 days after application.

Experiment [6] relates to Puccinia Recondite f. Sp. Tritici. The experiment can be described thus: Puccinia recondita f. sp. tritici / wheat / leaf disc preventative (brown rust). It counts as in vivo. To be noted: foliar, wheat leaf segments cv. Kanzler, inoculated 1 day after application, assessed 7-9 days after application, compared to untreated, read-out: disease control. The protocol: Puccinia Recondite f. Sp. Tritici/Wheat/Leaf Disc Preventative (Brown Rust) Wheat leaf segments cv. Kanzler are placed on agar in multiwell plates (24-well format) and sprayed with the formulated test compound diluted in water. The leaf disks are inoculated with a spore suspension of the fungus 1 day after application. The inoculated leaf segments are incubated at 19° C. and 75% rh under a light regime of 12 h light/12 h darkness in a climate cabinet and the activity of a compound is assessed as percent disease control compared to untreated when an appropriate level of disease damage appears in untreated check leaf segments (7-9 days after application).

For experiment [7], the system named is Botryotinia fuckeliana (Botrytis cinerea). Description: Botryotinia fuckeliana (Botrytis cinerea) / liquid culture (gray mould). To be noted: Vogels broth, 24° C., 3-4 days after application, compared to untreated checks, read-out: disease control (inhibition of growth, photometric). It counts as cell-based. The protocol: Botryotinia fuckeliana (Botrytis cinerea)/Liquid Culture (Gray Mould) Conidia of the fungus from cryogenic storage are directly mixed into nutrient broth (Vogels broth). After placing a (DMSO) solution of test compound into a microtiter plate (96-well format), the nutrient broth containing the fungal spores is added. The test plates are incubated at 24° C. and the inhibition of growth is determined photometrically 3-4 days after application.

The subject of experiment [8] is Glomerella Lagenarium (Colletotrichum lagenarium). The experiment can be described thus: Glomerella lagenarium (Colletotrichum lagenarium) / liquid culture (anthracnose). To be noted: Colletotrichum orbiculare, PDB potato dextrose broth, 24° C., 3 to 4 days after application, compared to untreated checks, read-out: disease control (inhibition of growth, photometric). The experiment is classed as cell-based. The protocol: Glomerella Lagenarium (Colletotrichum lagenarium)/Liquid Culture (Anthracnose) Conidia of the fungus from cryogenic storage are directly mixed into nutrient broth (PDB potato dextrose broth). After placing a (DMSO) solution of test compound into a microtiter plate (96-well format), the nutrient broth containing the fungal spores is added. The test plates are incubated at 24° C. and the inhibition of growth is measured photometrically 3 to 4 days after application.

In experiment [9] the test system is Alternaria solani. Description: Alternaria solani / tomato / leaf disc (early blight). It counts as in vivo. To be noted: 200 ppm; tomato leaf disks cv. Baby, inoculated 2 days after application, assessed 5-7 days after application, compared to untreated. On the procedure:
Alternaria solani/Tomato/Leaf Disc (Early Blight) Tomato leaf disks cv. Baby are placed on agar in multiwell plates (24-well format) and sprayed with the formulated test compound diluted in water. The leaf disks are inoculated with a spore suspension of the fungus 2 days after application. The inoculated leaf disks are incubated at 23° C./21° C.

The test system of experiment [10] is Blumeria graminis f. Sp. Tritici (Erysiphe Graminis f. Sp. Tritici). Description: Blumeria graminis f. sp. tritici / wheat / leaf disc preventative (powdery mildew on wheat). The note with it: 200 ppm; wheat leaf segments cv. Kanzler, inoculated 1 day after application, assessed 6-8 days after application, compared to untreated. The experiment is classed as in vivo. On the procedure: Blumeria graminis f. Sp. Tritici (Erysiphe Graminis f. Sp. Tritici)/Wheat/Leaf Disc Preventative (Powdery Mildew on Wheat)
Wheat leaf segments cv. Kanzler are placed on agar in a multiwell plate (24-well format) and sprayed with the test compound formulated with DMSO and Tween20 and diluted in water. The leaf disks are inoculated by shaking powdery mildew infected plants above the test plates 1 day after application. The inoculated leaf disks are incubated at 20° C. and 60% rh under a light regime of 24 h darkness followed by 12 h light/12 h darkness in a climate chamber and the activity of a compound is assessed as percent disease control compared to untreated when an appropriate level of disease damage appears on untreated check leaf segments (6-8 days after application).

A value given as a limit tells only on which side of the number the result lay.

Take `COc1ccnc(C(=O)N[C@@H](C)C(=O)ON(C)C(c2ccccc2)c2ccccc2)c1O` [I.m.01, [benzhydryl(methyl)amino] (2S)-2-[(3-hydroxy-4-methoxy-pyridine-2-carbonyl)amino]propanoate]: the pest or weed control at 200 ppm in experiment [1], in [3] and in experiment [6] was at least 80% each time. Also, the inhibition at 200 ppm in experiment [2], in experiment [4], in experiment [5], in [7] and in [8] was at least 80% throughout.
With `COc1ccnc(C(=O)N[C@@H](C)C(=O)ON(C)C(C)(c2ccc(Cl)cc2)c2ccc(Cl)cc2)c1OC(C)=O` [I.u.14, [1,1-bis(4-chlorophenyl)ethyl-methyl-amino] (2S)-2-[(3-acetoxy-4-methoxy-pyridine-2-carbonyl)amino]propanoate], the pest or weed control at 200 ppm in experiment [1], in [3] and in [6] was at least 80% each time. Besides, the inhibition at 200 ppm in experiment [2], in experiment [4], in [5], in [7] and in experiment [8] was at least 80% each time.
As for `COc1ccnc(C(=O)N[C@@H](C)C(=O)ON(C)C(C)(c2ccccc2)c2ccc(Cl)cc2)c1O` (stereo partly drawn) [I.o.02, [[1-(4-chlorophenyl)-1-phenyl-ethyl]-methyl-amino] (2S)-2-[(3-hydroxy-4-methoxy-pyridine-2-carbonyl)amino]propanoate], the pest or weed control at 200 ppm in experiment [1], in [3] and in experiment [6] was at least 80% in each case. In [9], the “control of Alternaria solani” value was “at least 80%”. Moreover, the inhibition at 200 ppm in experiment [2] and in experiment [5] was at least 80% throughout.
As to `COc1ccnc(C(=O)N[C@@H](C)C(=O)ON(C)C(C)(c2ccc(F)cc2)c2ccc(F)cc2)c1O` [I.s.02, [1,1-bis(4-fluorophenyl)ethyl-methyl-amino] (2S)-2-[(3-hydroxy-4-methoxy-pyridine-2-carbonyl)amino] propanoate], the pest or weed control at 200 ppm in experiment [1] and in experiment [3] was at least 80% each time. The inhibition at 200 ppm in experiment [2], in experiment [5], in [7] and in experiment [8] was at least 80% throughout.
As to `COc1ccnc(C(=O)N[C@@H](C)C(=O)ON(C)C(c2ccccc2)c2ccccc2)c1OC(C)=O` [I.m.13, [benzhydryl(methyl)amino] (2S)-2-[(3-acetoxy-4-methoxy-pyridine-2-carbonyl)amino]propanoate], the pest or weed control at 200 ppm in experiment [1], in experiment [3] and in [6] was at least 80% each time. Besides, the inhibition at 200 ppm in experiment [2] and in experiment [5] was at least 80% each time. For the same compound, in experiment [10], the disease control entry is listed as “at least 80%”.
In the case of `CCOc1ccc(C(c2ccc(OCC)cc2)N(C)OC(=O)[C@H](C)NC(=O)c2nccc(OC)c2O)cc1` [I.ac.01, [bis(4-ethoxy phenyl)methyl-methyl-amino] (2S)-2-[(3-hydroxy-4-methoxy-pyridine-2-carbonyl)amino]propanoate], the inhibition at 200 ppm in [2], in experiment [4], in experiment [5], in [7] and in [8] was at least 80% throughout. For the same compound, the pest or weed control at 200 ppm in [3] and in experiment [6] was at least 80% each time.

Values taken from US11535594B2, “Microbiocidal picolinamide derivatives” (Syngenta Participations AG, priority 2017, dated 2022).
